Assay results taken from ChEMBL document CHEMBL5365457, “Selective HDAC3 Inhibitors with Potent In Vivo Antitumor Efficacy against Triple-Negative Breast Cancer” (J Med Chem, 2023).
The source made the active and inactive calls. The rule behind the calls is not given here.

Legend:
MCF7 = experiment: Cytotoxicity against human MCF7 cells assessed as inhibition of cell growth incubated for 72 hrs by MTT assay; type: functional, cell-based; conditions: MCF7, 72 h
4T1 [1] = experiment: Cytotoxicity against mouse 4T1 cells assessed as inhibition of cell growth incubated for 72 hrs by MTT assay; type: functional, cell-based; conditions: 4T1, 72 h
MDA-MB-231 [2] = experiment: Cytotoxicity against human MDA-MB-231 cells assessed as inhibition of cell growth incubated for 72 hrs by MTT assay; type: functional, cell-based; conditions: MDA-MB-231, 72 h
MDA-MB-453 = experiment: Cytotoxicity against human MDA-MB-453 cells assessed as inhibition of cell growth incubated for 72 hrs by MTT assay; type: functional, cell-based; conditions: MDA-MB-453, 72 h
[3] = Cytotoxicity against human MCF-10A cells assessed as inhibition of cell growth incubated for 72 hrs by MTT assay; type: toxicity, cell-based
[4] = Cytotoxicity against human HCEC cells assessed as inhibition of cell growth incubated for 72 hrs by MTT assay; type: toxicity, cell-based; conditions: human, HCEC cells
[5] = Half life in Wistar rat at 15 mg/kg, ip measured upto 24 hrs by HPLC analysis; type: ADME, organism-based; conditions: in vivo
[6] = Tmax in Wistar rat at 15 mg/kg, ip measured upto 24 hrs by HPLC analysis; type: ADME, organism-based; conditions: in vivo
[7] = Cmax in Wistar rat at 15 mg/kg, ip measured upto 24 hrs by HPLC analysis; type: ADME, organism-based; design: dose 15 mg/kg, time < 24 hrs, route ip; conditions: in vivo
[8] = AUC (0 to t) in Wistar rat at 15 mg/kg, ip measured upto 24 hrs by HPLC analysis; type: ADME, organism-based; design: dose 15 mg/kg, time < 24 hrs, route ip; conditions: in vivo
[9] = AUC (0 to infinity) in Wistar rat at 15 mg/kg, ip measured upto 24 hrs by HPLC analysis; type: ADME, organism-based; design: dose 15 mg/kg, time < 24 hrs, route ip; conditions: in vivo
[10] = MRT (0 to infinity) in Wistar rat at 15 mg/kg, ip measured upto 24 hrs by HPLC analysis; type: ADME, organism-based; conditions: in vivo
[11] = Apparent volume of distribution in Wistar rat at 15 mg/kg, ip measured upto 24 hrs by HPLC analysis; type: ADME, organism-based; conditions: in vivo
[12] = Apparent oral clearance in Wistar rat at 15 mg/kg, ip measured upto 24 hrs by HPLC analysis; type: ADME, organism-based; conditions: in vivo
[13] = AUMC (0 to infinity) in Wistar rat at 15 mg/kg, ip measured upto 24 hrs by HPLC analysis; type: ADME, organism-based; conditions: in vivo
4T1 [14] = experiment: Induction of apoptosis in mouse 4T1 cells at 1.54 uM incubated for 72 hrs by annexin/PI staining based flow cytometry analysis (reference value: 1.35%); type: functional
4T1 [15] = experiment: Cell cycle arrest in mouse 4T1 cells assessed as accumulation of cells at G1 phase at 1.54 uM incubated for 72 hrs by flow cytometry; type: functional
4T1 [16] = experiment: Cell cycle arrest in mouse 4T1 cells assessed as accumulation of cells at G1 phase at 7.72 uM incubated for 72 hrs by flow cytometry; type: functional
4T1 [17] = experiment: Cell cycle arrest in mouse 4T1 cells assessed as accumulation of cells at G1 phase at 38.6 uM incubated for 72 hrs by flow cytometry; type: functional
MDA-MB-231 [18] = experiment: Cytotoxicity against wild type human MDA-MB-231 cells assessed as reduction in cell viability incubated for 72 hrs by MTT assay; type: functional, cell-based; conditions: MDA-MB-231, 72 h
[19] = Cytotoxicity against Oxaliplatin-resistant human MDA-MB-231 cell assessed as reduction in cell viability incubated for 72 hrs by MTT assay; type: functional, cell-based; conditions: Oxaliplatin-resistant MDA-MB-231 cell
4T1 [20] = experiment: Antitumor activity against mouse 4T1 cells implanted in BALB/c mouse assessed as reduction in tumor volume at 15 mg/kg, ip administered 5 times a week for 21 days (reference value: 52.25 +/-13.24 mm3); type: functional; conditions: time 21 day
4T1 [21] = experiment: Antitumor activity against mouse 4T1 cells implanted in BALB/c mouse assessed as reduction in tumor volume at 5 mg/kg, ip administered 5 times a week for 21 days (reference value: 51.91 +/-7.45 mm3); type: functional; conditions: time 21 day
4T1 [22] = experiment: Antitumor activity against mouse 4T1 cells implanted in BALB/c mouse assessed as reduction in tumor weight at 15 mg/kg, ip administered 5 times a week for 21 days; type: functional; conditions: time 21 day
4T1 [23] = experiment: Antitumor activity against mouse 4T1 cells implanted in BALB/c mouse assessed as tumor growth inhibition at 15 mg/kg, ip measured on day 7; type: functional; conditions: 4T1, 168 h, time 7 day, read-out: TGI
4T1 [24] = experiment: Antitumor activity against mouse 4T1 cells implanted in BALB/c mouse assessed as tumor growth inhibition at 15 mg/kg, ip measured on day 14; type: functional; conditions: 4T1, 336 h, time 14 day, read-out: TGI
4T1 [25] = experiment: Antitumor activity against mouse 4T1 cells implanted in BALB/c mouse assessed as tumor growth inhibition at 15 mg/kg, ip measured on day 21; type: functional; conditions: 4T1, 504 h, time 21 day, read-out: TGI
4T1 [26] = experiment: Antitumor activity against mouse 4T1 cells implanted in BALB/c mouse assessed as increase in apoptosis in tumor tissue at 5 to 15 mg/kg, ip by TUNEL staining based microscopic analysis; type: functional, organism-based; conditions: dose 5-15 mg/kg
4T1 [27] = experiment: Antitumor activity against mouse 4T1 cells implanted in BALB/c mouse assessed as reduction in Ki-67 expression in tumor tissue at 5 to 15 mg/kg, ip measured for 21 days by fluorescence based microscopic analysis; type: functional, organism-based; conditions: dose 5-15 mg/kg, time 21.0 day
[28] = Toxicity in BALB/c mouse implanted with mouse 4T1 cells assessed as heart damage at 5 to 15 mg/kg, ip measured after 21 days by H and E staining based assay; type: organism-based; conditions: in vivo, 504 h, dose 5-15 mg/kg, time 21 day
[29] = Toxicity in BALB/c mouse implanted with mouse 4T1 cells assessed as liver damage at 5 to 15 mg/kg, ip measured after 21 days by H and E staining based assay; type: organism-based; conditions: in vivo, 504 h, dose 5-15 mg/kg, time 21 day
[30] = Toxicity in BALB/c mouse implanted with mouse 4T1 cells assessed as kidney damage at 5 to 15 mg/kg, ip measured after 21 days by H and E staining based assay; type: organism-based; conditions: in vivo, 504 h, dose 5-15 mg/kg, time 21 day
[31] = Toxicity in BALB/c mouse implanted with mouse 4T1 cells assessed as spleen damage at 5 to 15 mg/kg, ip measured after 21 days by H and E staining based assay; type: organism-based; conditions: in vivo, 504 h, dose 5-15 mg/kg, time 21 day
4T1 [32] = experiment: Antitumor activity against mouse 4T1 cells implanted in BALB/c mouse assessed as increase in number of lung nodules at 15 mg/kg, ip measured for 7 days by H and E staining based assay; type: functional, organism-based; conditions: time 7.0 day

CCCCNNC(=O)c1ccc(Br)cc1
IC50 (MCF7): 15.4 µM
IC50 (4T1 [1]): 7.72 µM
IC50 (MDA-MB-231 [2]): 24.7 µM
IC50 (MDA-MB-453): 25.3 µM
IC50 at 72 h [3]: 99.3 µM
IC50 at 72 h [4]: 95.4 µM
half-life [5]: 5.18 h
Tmax [6]: 2 h
Cmax [7]: 5240 ng/mL
AUC(0-t) at 24 h [8]: 14500 ng·h/mL
AUC(0-inf) [9]: 14700 ng·h/mL
MRT inf [10]: 3.66 h
Vz/F [11]: 7.65 (mg/kg)/(ug/ml)
CL/F [12]: 1.03 (mg/kg)/(ug/ml).hr
AUMC [13]: 53.64 ug/ml.hr^2
Activity (4T1 [14]): 30.4%
Activity (4T1 [15]): 50.4%
Activity (4T1 [16]): 41.4%
Activity (4T1 [17]): 52.3%
IC50 (MDA-MB-231 [18]): 24.7 µM
IC50 [19]: 27.4 µM
Activity (4T1 [20]): 520.32 mm3
Activity (4T1 [21]): 1005.32 mm3
Activity (4T1 [22]): 0.29 g
inhibition in vivo at 15 mg/kg (4T1 [23]): 55.6%
inhibition in vivo at 15 mg/kg (4T1 [24]): 38.4%
inhibition in vivo at 15 mg/kg (4T1 [25]): 39.5%
Activity (4T1 [26]): Active
Activity (4T1 [27]): Active
Activity [28]: Non-Toxic
Activity [29]: Non-Toxic
Activity [30]: Non-Toxic
Activity [31]: Non-Toxic
Activity (4T1 [32]): inactive
